Series [1] can be described thus: Naltrexone saturation in Earle's solution. Format: physicochemical. The note with it: Earle's Balanced Salt Solution, 37° C.; read-out: saturation concentration. How it is done: The resulting implants were evaluated by both in vitro and in vivo techniques. In making the in vitro evaluations the films were measured for weight, thickness, and surface area, and were then rinsed briefly with Earle's Balanced Salt Solution (IX--without phenol red, Grand Island Biological Company). Individual films were placed in stoppered test tubes containing 10 ml of the Earle's solution. The tubes were placed in a shaker water bath at 37° C. and were gently agitated. Drug concentration of the solution was periodically assayed by scintillation counting techniques to permit an evaluation of the in vitro drug-release behavior of the copolymers. (The solutions were replaced sufficiently frequently that the naltrexone concentration remained far below saturation, i.e., below ~460 mg/100 ml).

The nature of series [2]: Tritium excretion in urine of rats given labelled prednisolone. To be noted: for Tritium in urine of rats: group 3, control, s.c. injection 1.0 mg/rat. Format: in vivo, rat (female CD). How it is done:
These implants contained from 0.65 to 2.0 mg of radioactively-labelled prednisolone, depending on the size of the implant rectangle. The implants were sterilized by immersion in alcohol and then rinsed with sterile Earle's Balanced Salt Solution. The devices were implanted subcutaneously into the backs of two groups each of eight female CD rats (Charles River Breeding Laboratories, Inc.). To accomplish the implantations, the dorsal area was shaved, cleaned with alcohol and then a one-half inch incision was made in the skin. The skin was then separated from the muscle tissue and the implant inserted at this site. The incision was then sutured.
Each animal of a third group of four female CD rats from the same source was subcutaneously injected with 0.5 cc of an 0.5% hydroxy propylcellulose solution containing an amount of the same radioactiviely labelled prednisolone approximately equivalent to that contained in the implant devices (i.e., 1 mg prednisolone/rat).
All of the animals were housed in metabolic cages. The radioactivities in the urines collected were measured by the standard procedure of scintillation counting, and from these measurements values of disintegrations per minute (DPM) were calculated. Radioactivities were thus measured every 24 hours for the first four days and then for an additional 72 hour level to complete a week of testing.
The average DPM values obtained for the two groups of implanted rats (average dosage of 1.5 mg/rat) and the one group of control rats (average dosage of 1.0 mg/rat) are given in Table 1. During the first day a number of rats escaped from their cages so that the average figures given are for fewer than the total number of animals in each group.

SMILES strings stand for the structures. “Also recorded” adds a separate entry of the source.

Regarding `O=C1CC[C@@]2(O)[C@H]3Cc4ccc(O)c5c4[C@@]2(CCN3CC2CC2)[C@H]1O5` [naltrexone], the solubility in series [1] was approximately 4600 µg/mL.

In the case of `C[C@]12C=CC(=O)C=C1CC[C@@H]1[C@@H]2[C@@H](O)C[C@@]2(C)[C@H]1CC[C@]2(O)C(=O)CO` [prednisolone], the “Tritium in urine of rats” value is 33,038 DPM in series [2] (0-24 h); 4,424 DPM in series [2] (24-48 h); 3,335 DPM in series [2] (48-72 h); 86 DPM in series [2] (72-96 h); -248 DPM in series [2] (96-168 h, minus values indicate noise). Further, the “excretion / drug release in words” value in series [2] (implants to one week, control first 24 h and end of fourth day) is “very high excretion rates in the first 24 hours; also recorded: practically no excretion of radioactive material”.

The values are drawn from patent US4351337A, “Biodegradable, implantable drug delivery device, and process for preparing and using the same” (Arthur D. Little, Inc., priority 1980, dated 1982).
